# Reference: patent publication US9499509B2, “Dihydrochalcone derivatives and their use as antibiotic agents” (UNIVERSITÉ DU QUÉBEC À CHICOUTIMI, priority 2012, dated 2016)
# Where two headings read alike, the source gives them in different places.
# What was measured:
# Corynebacterium jeikeium = assay: Antibiotic assay (resazurin, Example 1), Corynebacterium jeikeium; type: cell-based; settings: Coryne. jeikeium 14139
# Experimental: (§1) Bacteria Strain. […] The MRSA were obtained as further described below.
# (§2) Antibiotic agents. Cyprofloxacin and erythromycin were provided by Sigma-Aldrich. Gentamicin sulfate and vancomycin hydrochloride were provided by Calbiochem.
# (§3) Five additional strains were tested: Streptococcus pneumoniae, Streptococcus agalactiae, Streptococcus pyogenes, Enterococcus faecalis and Corynebacterium jeikeium.
# S. aureus = assay: Antibiotic assay (resazurin, Example 1), S. aureus strains of Table 3; type: cell-based, Staphylococcus aureus; settings: for IC50: read-out: IC50
# Text: as §1, §2
# [1] = test system: S. aureus wild type strain (ATCC 25923); assay: Antibiotic assay (resazurin, Example 1), S. aureus wild type; type: cell-based, Staphylococcus aureus
# Experimental: as §1, §2
# MRSA. Ten (10) strains of MRSA obtained as described above were tested along with an S. aureus wild type (WT) strain (ATCC25923).
# Streptococcus pyogenes = assay: Antibiotic assay (resazurin, Example 1), Streptococcus pyogenes; type: cell-based; settings: for IC50: read-out: IC50
# Experimental: as §1, §2, §3
# Streptococcus pneumoniae = assay: Antibiotic assay (resazurin, Example 1), Streptococcus pneumoniae; type: cell-based; settings: for IC50: read-out: IC50
# Experimental: as §1, §2, §3
# WS-1 cell lines = assay: Cytotoxicity assay on WS-1 (Example 1); settings: Table 5; WS-1, 48 h
# Experimental: Cytotoxicity assay. The cytotoxicity assay was performed in 96-well plates (BD Falcon). The WS-1 cell lines were provided by ATCC. The WS-1 was cultured in DMEM+10% fetal calf serum. The cells were plated in a volume of 100 μL at a density of 5000 cells per well and incubated at 37° C.+5% CO2 for 24 h to promote cell adhesion.
# The plates were incubated at 37° C.+5% CO2 for 48 h. The cells were then washed with 100 μL of HBSS and 150 μL of a 2% resazurin were added to the wells.
# The therapeutic index is the ratio between the toxicity on normal cells, in this case fibroblast, and the toxicity on bacteria.
# Enterococcus faecalis = assay: Antibiotic assay (resazurin, Example 1), Enterococcus faecalis; type: cell-based; settings: for IC50: read-out: IC50
# Experimental: as §1, §2, §3
# Streptococcus agalactiae = assay: Antibiotic assay (resazurin, Example 1), Streptococcus agalactiae; type: cell-based; settings: for IC50: read-out: IC50
# Experimental: as §1, §2, §3
# S. epidermidis = assay: Antibiotic assay (resazurin, Example 1), S. epidermidis strains
# Experimental: The antibiotic assays were performed in 96-well plates (BD Falcon). The bacteria strains were inoculated in Nutrient Broth (BD) for the gram negative bacteria and Tryptic soy broth (BD) with 10% of defibrinated sheep blood (PML microbiological) for gram positive strain. All bacteria strains were dosed by spectrophotometry at 660 nm where 1 D.O=2×10^8 bacteria/mL. All bacteria were plated in their respective broth at a concentration of 450 000 bacteria/mL.
# Compounds I, II and III were diluted in methanol and the above-noted antibiotic agents were diluted in water. The solvent concentration was 0.25%, which was not toxic for the bacteria. Compounds I, II and III and the above-noted antibiotic agents were tested at 8 different concentrations.
# Each well contained: 100 μL of bacteria, 50 μL of the compounds tested (compound I, II, III or the above-noted antibiotic agent) and 50 μL of a 4% resazurin (Sigma) solution. The plates were incubated at 37° C. for 5 h. The fluorescence was read using a Fluoroskan Ascent™ FL (thermo) using an excitation wavelength of 530 nm and an emission wavelength of 590 nm.
# Two different strains of Staphylococcus were tested, namely the S. epidermidis and the S. aureus strains.
compound,measurement,setting,value
O=C(CCc1ccccc1)c1c(O)cc(O)c(C/C=C/c2ccc(O)cc2)c1O [Compound III],Minimum Inhibitory Concentration (MIC),Corynebacterium jeikeium,(200) μM
same,IC50,Corynebacterium jeikeium; read-out: IC50,9 ± 2 µM
same,Minimum Inhibitory Concentration (MIC),S. aureus; S. aureus 14094,(5.5) μM
same,IC50,S. aureus; S. aureus 14094,2.4 ± 0.2 µM
same,Minimum Inhibitory Concentration (MIC),S. aureus; S. aureus 14108,(5.25) μM
same,IC50,S. aureus; S. aureus 14108,2.7 ± 0.2 µM
same,Minimum Inhibitory Concentration (MIC),S. aureus; S. aureus 14118,(3.46) μM
same,IC50,S. aureus; S. aureus 14118,2.3 ± 0.1 µM
same,Minimum Inhibitory Concentration (MIC),S. aureus; S. aureus 14154,(4.95) μM
same,IC50,S. aureus; S. aureus 14154,1.5 ± 0.1 µM
same,Minimum Inhibitory Concentration (MIC),[1]; S. aureus WT (ATCC 25923),(5.81) μM
same,IC50,"[1]; S. aureus WT (ATCC 25923), read-out: IC50",2.2 ± 0.6 µM
same,IC50,"[1]; Table 5, same values as IC50 of Table 2, read-out: S. aureus WT ATCC 25923 (toxicity on bacteria)",2.2 ± 0.6 µM
same,Minimum Inhibitory Concentration (MIC),Streptococcus pyogenes; Strep. pyogenes 14149,(>200) μM
same,IC50,Streptococcus pyogenes; Strep. pyogenes 14149,> 200 µM
same,Minimum Inhibitory Concentration (MIC),Streptococcus pyogenes; Strep. pyogenes 14152,(>200) μM
same,IC50,Streptococcus pyogenes; Strep. pyogenes 14152,174 ± 10 µM
same,activity against Streptococcus pyogenes strain 14152,Streptococcus pyogenes; in words,active
same,Minimum Inhibitory Concentration (MIC),Streptococcus pneumoniae; Strep. pneumoniae 14070,(>200) μM
same,IC50,Streptococcus pneumoniae; Strep. pneumoniae 14070,124 ± 5 µM
same,Minimum Inhibitory Concentration (MIC),Streptococcus pneumoniae; Strep. pneumoniae 14112,(190) μM
same,IC50,Streptococcus pneumoniae; Strep. pneumoniae 14112,89 ± 5 µM
same,Minimum Inhibitory Concentration (MIC),Streptococcus pneumoniae; Strep. pneumoniae 14138,(>200) μM
same,IC50,Streptococcus pneumoniae; Strep. pneumoniae 14138,> 200 µM
same,Minimum Inhibitory Concentration (MIC),Streptococcus pneumoniae; Strep. pneumoniae 14144,(>200) μM
same,IC50,Streptococcus pneumoniae; Strep. pneumoniae 14144,> 200 µM
same,Minimum Inhibitory Concentration (MIC),Streptococcus pneumoniae; Strep. pneumoniae 14148,(200) μM
same,IC50,Streptococcus pneumoniae; Strep. pneumoniae 14148,93 ± 7 µM
same,activity against Streptococcus pneumoniae 14070 strain,Streptococcus pneumoniae; in words,active
same,activity against Streptococcus pneumoniae strain 14144,Streptococcus pneumoniae; in words,not active
same,"WS-1 (toxicity on normal cells, fibroblast)",WS-1 cell lines,20 ± 3
same,Minimum Inhibitory Concentration (MIC),Enterococcus faecalis; Ent. Faecalis 14078,(>200) μM
same,IC50,Enterococcus faecalis; Ent. Faecalis 14078,> 200 µM
same,Minimum Inhibitory Concentration (MIC),Enterococcus faecalis; Ent. Faecalis 14115,(>200) μM
same,IC50,Enterococcus faecalis; Ent. Faecalis 14115,> 200 µM
same,activity against Enterococcus faecalis,Enterococcus faecalis; in words,No activity
same,Minimum Inhibitory Concentration (MIC),Streptococcus agalactiae; Strep. agalactiae 14150,(>200) μM
same,IC50,Streptococcus agalactiae; Strep. agalactiae 14150,154 ± 2 µM
same,Minimum Inhibitory Concentration (MIC),Streptococcus agalactiae; Strep. agalactiae 14151,(>200) μM
same,IC50,Streptococcus agalactiae; Strep. agalactiae 14151,> 200 µM
same,Minimum Inhibitory Concentration (MIC),Streptococcus agalactiae; Strep. agalactiae 14153,(>200) μM
same,IC50,Streptococcus agalactiae; Strep. agalactiae 14153,> 200 µM
same,activity against Streptococcus agalactiae strain 14150,Streptococcus agalactiae; in words,active
same,IC50,S. epidermidis; S. epidermidis 14069,4.5 ± 0.3 µM
same,Minimum Inhibitory Concentration (MIC),S. epidermidis; S. epidermidis 14069,(10.9) μM
same,IC50,S. epidermidis; S. epidermidis 14085,3.6 ± 0.4 µM
same,Minimum Inhibitory Concentration (MIC),S. epidermidis; S. epidermidis 14085,(11.6) μM
same,IC50,S. epidermidis; S. epidermidis 14093,6.3 ± 0.6 µM
same,Minimum Inhibitory Concentration (MIC),S. epidermidis; S. epidermidis 14093,(8.43) μM
same,IC50,S. epidermidis; S. epidermidis 14134,3 ± 0.6 µM
same,Minimum Inhibitory Concentration (MIC),S. epidermidis; S. epidermidis 14134,(14.7) μM
same,IC50,S. epidermidis; S. epidermidis 14143,4.41 ± 0.04 µM
same,Minimum Inhibitory Concentration (MIC),S. epidermidis; S. epidermidis 14143,(9) μM
same,activity on S. epidermidis compared with ciprofloxacin,S. epidermidis; in words,more active than ciprofloxacin
